These results are taken from patent US20240417398A1, “TETRAHYDRONAPTHYRIDINE AND RELATED ANALOGS FOR INHIBITING YAP/TAZ-TEAD” (SpringWorks Therapeutics, Inc., priority 2023, published 2024).

Format in all cases: cell-based
Assay [1] deals with YAP/TAZ-TEAD transcription. In words: Reporter gene assay for measuring the inhibition of YAP/TAZ-TEAD transcription (TEAD-responsive element luciferase reporter, Hek293T cells). The settings on record: Hek293T cells transfected with TEAD-responsive element luciferase reporter, 24 hours incubation. How it is done: Hek293T cells were cultured in DMEM supplemented with 10% fetal bovine serum, Sodium pyruvate, Sodium bicarbonate, L-glutamine. The cells were harvested and transiently transfected with TEAD-responsive element luciferase reporter. Transfected cells were plated in 384-well plate containing pre-diluted compounds. After 24 hours incubation at 37° C./5% CO2, assay plates were cooled to room temperature and levelled to an equal volume per well, prior to the addition of 25 uL luciferase substrate SteadyLite (Perkin Elmer)/well. The plate was shaken for 10 min at 600 rpm, centrifuged for 1 min at 500 rpm and measured with an Envision reader (PerkinElmer). The amount of relative light units produced by the TEAD reporter was used to calculate the percentage of inhibition.
The percent of reporter inhibition was calculated in the presence of a positive control inhibitor (100% inhibition) versus a condition with the presence of the vehicle basal activity of the reporter (0% inhibition). The ability of a test compound to inhibit this activity was determined as: Percentage inhibition=[1-((RLU determined in the presence of vehicle−RLU determined for sample with test compound present) divided by (RLU determined in the presence of vehicle−RLU determined for sample with positive control inhibitor))]*100.
The activities of example compounds tested are depicted in Table 3. The activity ranges A, B and C refer to IC50 values in the reporter gene assay as follows: “A”: IC50<1 μM; “B”: 1 μM≤IC50 10 μM and “C”: IC50>10 μM; NT=not tested.

A further assay relates to NCI-H226. In words: Mesothelioma cell line proliferation assay (ATPlite), NCI-H226. As to conditions: NCI-H226 cells, 6 days with compound, ATPlite cell viability. The procedure:
(§1) Mesothelioma cell lines, NCI-H226 and NCI-H2052 (both sourced from the ATCC cell culture collection) were plated in 96-well plates (Corning® 96 Well White Polystyrene Microplate clear flat bottom, white polystyrene (TC-Treated)), at 1500 cells/well in full medium (RPMI 1640 ATCC modification with L-glutamine, HEPES, Phenol Red, Sodium Pyruvate, High glucose, Low sodium bicarbonate and 10% fetal bovine serum). Cells were incubated overnight at 37° C. in an incubator with 5% CO2. Then compounds, dissolved in DMSO, were added in dose-response. Cells were incubated with compound dilutions for another 6 days at 37° C. in an incubator with 5% CO2. Cell viability was quantitated using the ATPlite kit (Perkin-Elmer) and the luminescence was read-out using an Envision instrument (Perkin-Elmer). The amount of relative light units produced using the ATPlite kit was used to calculate percent of inhibition.
(§2) The activities of some example compounds are depicted in Table 4. The activity ranges A, B and C refer to EC50 values in the mesothelioma cell line proliferation assay as described as follows: “A”: EC50<1 μM; “B”: 1 μM≤EC50<10 μM and “C”: EC50>10 μM; NT: not tested.

The next assay has as its system NCI-H2052. In words: Mesothelioma cell line proliferation assay (ATPlite), NCI-H2052. As to conditions: NCI-H2052 cells, 6 days with compound, ATPlite cell viability. How it is done:
as §1, §2

Where only a bound is given, the exact number is not on record here.

Take `C=CC(=O)NCC1Cc2c(OCc3cc[nH]c(=O)c3)cccc2N(c2ccc(C(F)(F)F)cc2)C1` (single isomer, unassigned) [Cpd. No. 6-En1, (R)- or (S)-N-((5-((2-oxo-1,2-dihydropyridin-4-yl)methoxy)-1-(4-(trifluoromethyl)phenyl)-1,2,3,4-tetrahydroquinolin-3-yl)methyl)acrylamide]: in assay [1] (Homo sapiens, HEK-293T, 24 h), the IC50 is less than 1000 nM. Moreover, the EC50 in the assay on NCI-H226 is less than 1000 nM.
The compound `C=CC(=O)NCC1Cc2c(OCc3cc[nH]c(=O)c3)cccc2N(c2ccc(C(F)(F)F)cc2)C1` (single isomer, unassigned) [Cpd. No. 6-En2, (R)- or (S)-N-((5-((2-oxo-1,2-dihydropyridin-4-yl)methoxy)-1-(4-(trifluoromethyl)phenyl)-1,2,3,4-tetrahydroquinolin-3-yl)methyl)acrylamide] had an IC50 in assay [1] of less than 1000 nM. In addition, the EC50 in the assay with NCI-H226 (Homo sapiens, 144 h) is less than 1000 nM; in the assay with NCI-H2052 (Homo sapiens, 144 h) it was less than 1000 nM.
On to `C=CC(=O)NCC1Cc2ncccc2N(c2ccc(C(F)(F)F)cc2)C1` (single isomer, unassigned) [Cpd. No. 10-En1, (R)- or (S)-N-((1-(4-(trifluoromethyl)phenyl)-1,2,3,4-tetrahydro-1,5-naphthyridin-3-yl)methyl)acrylamide], for which the IC50 in assay [1] (Homo sapiens, HEK-293T, 24 h) was less than 1000 nM. The EC50 is less than 1000 nM with NCI-H226 (Homo sapiens, 144 h) and less than 1000 nM with NCI-H2052 (Homo sapiens, 144 h).
On to `CC(=O)NCC1Cc2ncccc2N(c2ccc(C(F)(F)F)cc2)C1` (single isomer, unassigned) [Cpd. No. 12-En2, (R)- or (S)-N-((1-(4-(trifluoromethyl)phenyl)-1,2,3,4-tetrahydro-1,5-naphthyridin-3-yl)methyl)acetamide], for which the half-maximal inhibitory concentration (IC50) in assay [1] is less than 1000 nM. Besides, the EC50 is less than 1000 nM with NCI-H226 (Homo sapiens, 144 h) and less than 1000 nM in the assay with NCI-H2052 (Homo sapiens, 144 h).
Compound `C=CC(=O)NCC1Cc2c(OCc3cc(=O)[nH]c(=O)n3C)cccc2N(c2ccc(C(F)(F)F)cc2)C1` (single isomer, unassigned) [Cpd. No. 14-En1, (R)- or (S)-N-((5-((3-methyl-2,6-dioxo-1,2,3,6-tetrahydropyrimidin-4-yl)methoxy)-1-(4-(trifluoromethyl)phenyl)-1,2,3,4-tetrahydroquinolin-3-yl)methyl)acrylamide] had an IC50 in assay [1] (Homo sapiens, HEK-293T, 24 h) of less than 1000 nM. The EC50 in the assay on NCI-H226 (Homo sapiens, 144 h) was less than 1000 nM; with NCI-H2052 (Homo sapiens, 144 h), less than 1000 nM.
Turning to `C=CC(=O)NCC1Cc2c(OCc3cc(=O)[nH]c(=O)n3C)cccc2N(c2ccc(C(F)(F)F)cc2)C1` (single isomer, unassigned) [Cpd. No. 14-En2, (R)- or (S)-N-((5-((3-methyl-2,6-dioxo-1,2,3,6-tetrahydropyrimidin-4-yl)methoxy)-1-(4-(trifluoromethyl)phenyl)-1,2,3,4-tetrahydroquinolin-3-yl)methyl)acrylamide], the EC50 with NCI-H226 and in the assay with NCI-H2052 was less than 1000 nM in each case.
Compound `CCC(=O)NCC1Cc2ncccc2N(c2ccc(C(F)(F)F)cc2)C1` (single isomer, unassigned) [Cpd. No. 17-En2, (R)- or (S)-N-((1-(4-(trifluoromethyl)phenyl)-1,2,3,4-tetrahydro-1,5-naphthyridin-3-yl)methyl)propionamide] had an IC50 in assay [1] of less than 1000 nM. Besides, the EC50 in the assay on NCI-H226 (Homo sapiens, 144 h) was less than 1000 nM; with NCI-H2052 (Homo sapiens, 144 h), less than 1000 nM.
`COc1ccc2c(n1)CC(CNC(C)=O)CN2c1ccc(C(F)(F)F)cc1` (single isomer, unassigned) [Cpd. No. 22-En2, (R)- or (S)-N-((6-methoxy-1-(4-(trifluoromethyl)phenyl)-1,2,3,4-tetrahydro-1,5-naphthyridin-3-yl)methyl)acetamide]: in assay [1], the IC50 was less than 1000 nM. Moreover, the EC50 is less than 1000 nM in the assay with NCI-H226 (Homo sapiens, 144 h) and less than 1000 nM with NCI-H2052 (Homo sapiens, 144 h).
Compound `CC(=O)NCC1Cc2nc(C)ccc2N(c2ccc(C(F)(F)F)cc2)C1` (single isomer, unassigned) [Cpd. No. 26-En2, (R)- or (S)-N-((6-methyl-1-(4-(trifluoromethyl)phenyl)-1,2,3,4-tetrahydro-1,5-naphthyridin-3-yl)methyl)acetamide] registered an IC50 in assay [1] of less than 1000 nM. In addition, the EC50 was less than 1000 nM with NCI-H226 (Homo sapiens, 144 h) and less than 1000 nM in the assay with NCI-H2052 (Homo sapiens, 144 h).
For `[2H]C([2H])([2H])C(=O)NCC1Cc2ncccc2N(c2ccc(C(F)(F)F)cc2)C1` (single isomer, unassigned) [Cpd. No. 34-En2, (R)- or (S)-N-((1-(4-(trifluoromethyl)phenyl)-1,2,3,4-tetrahydro-1,5-naphthyridin-3-yl)methyl)acetamide-2,2,2-d3], the IC50 in assay [1] is less than 1000 nM. Moreover, the EC50 with NCI-H226 (Homo sapiens, 144 h) is less than 1000 nM; in the assay on NCI-H2052 (Homo sapiens, 144 h) it was less than 1000 nM.
The compound `CC(=O)NCC1(C)Cc2ncccc2N(c2ccc(C(F)(F)F)cc2)C1` (single isomer, unassigned) [Cpd. No. 47-En1, (R)- or (S)-N-((3-methyl-1-(4-(trifluoromethyl)phenyl)-1,2,3,4-tetrahydro-1,5-naphthyridin-3-yl)methyl)acetamide] yielded an IC50 in assay [1] of less than 1000 nM. The EC50 was less than 1000 nM with NCI-H226 (Homo sapiens, 144 h) and less than 1000 nM in the assay with NCI-H2052 (Homo sapiens, 144 h).
In turn, `C=CC(=O)NCC1Cc2c(OCc3cc(=O)[nH]c(=O)[nH]3)cccc2N(c2ccc(C(F)(F)F)cc2)C1` (stereo not shown) [Cpd. No. 4, N-((5-((2,6-dioxo-1,2,3,6-tetrahydropyrimidin-4-yl)methoxy)-1-(4-(trifluoromethyl)phenyl)-1,2,3,4-tetrahydroquinolin-3-yl)methyl)acrylamide] displayed an IC50 in assay [1] (Homo sapiens, HEK-293T, 24 h) of less than 1000 nM. In addition, the EC50 with NCI-H226 (Homo sapiens, 144 h) was less than 1000 nM; with NCI-H2052 (Homo sapiens, 144 h) it was less than 1000 nM.
In turn, `CCc1ccc2c(n1)CC(CNC(C)=O)CN2c1ccc(C(F)(F)F)cc1` (stereo not shown) [Cpd. No. 55, N-((6-ethyl-1-(4-(trifluoromethyl)phenyl)-1,2,3,4-tetrahydro-1,5-naphthyridin-3-yl)methyl)acetamide] gave an IC50 in assay [1] (Homo sapiens, HEK-293T, 24 h) of less than 1000 nM.
As for `CC(=O)NCC1Cc2nccnc2N(c2ccc(C(F)(F)F)cc2)C1` (stereo not shown) [Cpd. No. 56, N-((5-(4-(trifluoromethyl)phenyl)-5,6,7,8-tetrahydropyrido[2,3-b]pyrazin-7-yl)methyl)acetamide], the IC50 in assay [1] (Homo sapiens, HEK-293T, 24 h) is less than 1000 nM.
On the same count and under the same terms, the value for `CC(=O)NCC1Cc2nc(C3CC3)ccc2N(c2ccc(C(F)(F)F)cc2)C1` (stereo not shown) [Cpd. No. 57, N-((6-cyclopropyl-1-(4-(trifluoromethyl)phenyl)-1,2,3,4-tetrahydro-1,5-naphthyridin-3-yl)methyl)acetamide] was less than 1000 nM.
In assay [1] (Homo sapiens, HEK-293T, 24 h), `CC(=O)NCC1Cc2nc(C#N)ccc2N(c2ccc(C(F)(F)F)cc2)C1` (stereo not shown) [Cpd. No. 58, N-((6-cyano-1-(4-(trifluoromethyl)phenyl)-1,2,3,4-tetrahydro-1,5-naphthyridin-3-yl)methyl)acetamide] gave an IC50 greater than 10000 nM.
In assay [1] (Homo sapiens, HEK-293T, 24 h), `CC(=O)NCC1Cc2nc(C(N)=O)ccc2N(c2ccc(C(F)(F)F)cc2)C1` (stereo not shown) [Cpd. No. 59, 7-(acetamidomethyl)-5-(4-(trifluoromethyl)phenyl)-5,6,7,8-tetrahydro-1,5-naphthyridine-2-carboxamide] showed an IC50 greater than 10000 nM.
For the compound `CC(=O)NCC1Cc2nc(OC(F)F)ccc2N(c2ccc(C(F)(F)F)cc2)C1` (stereo not shown) [Cpd. No. 60, N-((6-(difluoromethoxy)-1-(4-(trifluoromethyl)phenyl)-1,2,3,4-tetrahydro-1,5-naphthyridin-3-yl)methyl)acetamide], the IC50 in assay [1] (Homo sapiens, HEK-293T, 24 h) is less than 1000 nM.
Compound `CC(=O)NCC1Cc2nc(C(F)F)ccc2N(c2ccc(C(F)(F)F)cc2)C1` (stereo not shown) [Cpd. No. 61, N-((6-(difluoromethyl)-1-(4-(trifluoromethyl)phenyl)-1,2,3,4-tetrahydro-1,5-naphthyridin-3-yl)methyl)acetamide] showed an IC50 in assay [1] (Homo sapiens, HEK-293T, 24 h) of 1000 to 10000 nM.
Compound `CC(=O)NCC1Cc2nc(Br)ccc2N(c2ccc(C(F)(F)F)cc2)C1` (stereo not shown) [Cpd. No. 62, N-((6-bromo-1-(4-(trifluoromethyl)phenyl)-1,2,3,4-tetrahydro-1,5-naphthyridin-3-yl)methyl)acetamide] yielded a 50% inhibitory concentration (IC50) in assay [1] (Homo sapiens, HEK-293T, 24 h) of less than 1000 nM.
The compound `C#Cc1ccc2c(n1)CC(CNC(C)=O)CN2c1ccc(C(F)(F)F)cc1` (stereo not shown) [Cpd. No. 63, N-((6-ethynyl-1-(4-(trifluoromethyl)phenyl)-1,2,3,4-tetrahydro-1,5-naphthyridin-3-yl)methyl)acetamide] registered an IC50 in assay [1] (Homo sapiens, HEK-293T, 24 h) of less than 1000 nM.
